Measured values as given in patent publication US11590117B2, “Treatment of a hematologic malignancy with 2-(4-chlorophenyl)-n-((2-(2,6-dioxopiperidin-3-yl)-1-oxoisoindolin-5-yl)methyl)-2,2-difluoroacetamide” (priority 2016, dated 2023).
pEC50, pIC50: −log10 of the molar value. “And” between values parts separate entries of the source, which are not always exact repeats. Equal entries are not always repeated. Where two headings read alike, the source gives them in different places.

Tests used:
[1] = system: normal lymphocytes of AML bone marrow samples; experiment: Ex vivo flow cytometry (ExviTech) assay in AML donor bone marrow samples; type: cell-based, human
Procedure: (§1) Patient Samples: The study included bone marrow (BM) samples from adult patients over 18 years of age who were diagnosed with AML. Samples were analyzed in two different batches with the first batch containing 10 patients (donors assigned identification codes containing CG1) and the second comprising the remaining 20 donors (assigned identification codes containing CG3). Corresponding clinical data was not available for the second batch of 20 patient samples at the time of writing.
(§2) Experimental Study Design: To evaluate and characterize the ex vivo pharmacology of Compound 1 in malignant cells and normal lymphocytes of bone marrow samples from thirty donors with acute myeloid leukemia using a flow cytometry-based platform (ExviTech) (Bennett, et al Clin Lymphoma Myeloma Leuk 2014 August; 14(4):305-318).
(§3) On Day 1, the donor sample was received. A small part was separated for validation, and the majority was diluted with culture medium (Roswell Park Memorial Institute (RPMI) 1640) and plated into 96-well plates previously prepared with a range of Compound 1 concentrations. The number of live leukemic cells seeded in each well was fixed between 8000 and 32,000, depending on the percentage of leukemic cells for each sample. The plates were incubated for 24, 48, or 96 hours. Antibodies anti-D34, anti-CD117, anti-HLA-DR, anti-CD45, anti-CD14, anti-CD64, anti-CD13, anti-CD11b) or Annexin V were added to identify leukemic cells using a gating strategy based on forward scatter (FSC) or side scatter (SSC) and expression or lack of expression of different surface markers. The monoclonal antibody selection was performed to optimize the identification of leukemic cells in each sample. The aim of this analysis was not the phenotypic characterization but only the identification of these cells. Accordingly, the markers that Euroflow (van Dongen et al, Leukemia 2012 September; 26(9):1908-1975) has designated as the “backbone markers” for AML (CD34, CD45, CD117) and human leukocyte antigen-DR (HLA-DR) were included in the combination. They allowed the identification of the leukemic cells in almost 90% of AML patients. Additional panels, CD34/CD14/CD64/CD45 and CD34/CD11b/CD13/CD45, were also used to complete the identification of the myeloid leukemic population. This allowed for the selection of the two best antibodies for unequivocal identification of the pathological cell population in each particular sample.
(§4) Live leukemic cells were identified by their light scattering properties classified as high, intermediate, or low (eg, FSC^int/hi/SSC^int) in the absence of Annexin V fluorescein isothiocyanate (FITC) staining. Forward scatter/side scatter selection was performed to exclude debris. The average percentage of cell viability on receipt of the sample was greater than 50% (samples were only processed if the viability was greater than 50%). In some AML donor samples, sufficient normal, non-tumoral lymphocyte cells could be counted, and the effect of Compound 1 was measured in this cell population. Non-tumoral lymphocytes were identified by bright expression of CD45, FSC^low/SSC^low and absence of myeloid markers (CD117, CD11b, and CD13).
(§5) Detailed descriptions of methods used have been published previously (Bennett, et al Clin Lymphoma Myeloma Leuk 2014 August; 14(4):305-318). Briefly, BM samples were extracted under sterile conditions in hospitals of origin and were received within 24 hours of extraction. Initial analysis evaluated the number of pathological cells and their viability. Different volumes of sample (1 μL, 3 μL, 5 μL, and 7 μL) were transferred in duplicate into a 96-well plate. To lyse red blood cells, 180 μL of ammonium chloride lysis solution (2 g KHCO3, 16.58 g NH4Cl, 0.074 g disodium ethylenediaminetetraacetic acid ⋅2H2O, and H2O adjusted to […]) was added to each well. Following a 10-minute incubation period at 4° C., each plate was centrifuged for 5 minutes at 1200 rpm, and the supernatant removed. […]

[2] = system: leukemic cells of AML bone marrow samples; experiment: as above; type: cell-based, human; details: for Emax: 100% minus YMin; for depletion of leukemic cells, on average: sensitive patient samples
Procedure: as §1, §2, §3, §4, §5

[3] = system: Chronic Lymphocytic Leukemia patient samples; experiment: CellTiter-Glo (CTG) cell proliferation assay, 72 hours; type: cell-based; details: Homo sapiens, Chronic Lymphocytic Leukemia patient samples (n = 3)
Procedure: Table, Table 2 and Table 3. Human normal donor PBMCs and chronic lymphoid leukemia (CLL) patient blasts were obtained from AllCells, LLC (Alameda, Calif.).
Preparation of Solutions of Test Article: Compounds were plated into black 384-well plates (Corning Inc.) to a final DMSO volume of 0.1% assuming a maximal volume of 50 μL. A 10-point dose response starting at 10 μM with a 1:3 dilution was printed in duplicate by acoustic dispense using the EDC ATS-100 platform.
Cell Proliferation Assays: The effect of Compound 1 on the proliferation/viability of the hematological cell lines (Table 1 Table, Table 2 and Table 3), THLE-2, or PBMCs was assessed after 72 hours incubation using CTG (Promega), according to manufacturer's instructions. Hematological cell lines were dispensed into compound plates by a Multidrop™ Combi Reagent Dispenser (Thermo Scientific, Waltham, Mass.) at a concentration of 0.1 to 0.3×10^6 cells per mL in a 50 μL total volume. THLE-2 cells were seeded out at 1000 cells per well in 50 μL volume and incubated for 72 hours. At 72 hours, 25 μL per well of CTG was dispensed by a Multidrop™ Combi Reagent Dispenser and adenosine triphosphate (ATP) release by viable cells was measured as relative luminescence units after 30 minutes using the Envision platform.

## O=C1CCC(N2Cc3cc(CNC(=O)C(F)(F)c4ccc(Cl)cc4)ccc3C2=O)C(=O)N1 (stereo not shown) [Compound 1, 2-(4-chlorophenyl)-N-((2-(2,6-dioxopiperidin-3-yl)-1-oxoisoindolin-5-yl)methyl)-2,2-difluoroacetamide]
[1]; Homo sapiens, Lymphocyte, normal lymphocytes in patient samples where sufficient could be counted, from 24 to 96 hours, read-out: Emax, averaged
  Emax: 46 to 76%
[1]; Lymphoid (LIVE) cells, 48 hours incubation, per AML donor sample, 100% minus YMin
  Emax: 69.4%
[1]; Lymphoid (LIVE) cells, 48 hours incubation, per AML donor sample, unit inferred
  pEC50: 7.37
[2]; 30 fresh AML bone marrow samples
  patient samples sensitive to Compound 1: 26 out of 30
[2]; Homo sapiens, 96 h, Leukemic (LIVE) cells, 96 hours incubation, per AML donor sample, read-out: Emax
  Emax: 98%
[2]; Homo sapiens, 96 h, sensitive AML patient samples (26 out of 30), across all three time points (24, 48, 96 hours), read-out: EC50 (range)
  pEC50: 6.80 to 8.70
[2]; Homo sapiens, 96 h, sensitive AML patient samples (26 out of 30), across all three time points (24, 48, 96 hours), read-out: mean EC50
  pEC50: 7.68
[2]; Leukemic (LIVE) cells, 24 hours incubation, per AML donor sample
  Emax: 64.3% and 83.1%
[2]; Leukemic (LIVE) cells, 24 hours incubation, per AML donor sample, unit not printed in table (2 to 160 nM), read-out: EC50
  pEC50: 7.89
[2]; Leukemic (LIVE) cells, 48 hours incubation, per AML donor sample
  Emax: 99.8%
[2]; Leukemic (LIVE) cells, 96 hours incubation, per AML donor sample
  Emax: 100.0% and 99.9% and 99.6%
[2]; Leukemic (LIVE) cells, 96 hours incubation, per AML donor sample, unit not printed in table (2 to 160 nM), read-out: EC50
  pEC50: 8.30
[2]; four patient samples categorized as insensitive, at 24 and 48 hours
  depletion of leukemic blasts: ≤ 68%
[2]; by 48 hours
  depletion of leukemic cells, on average: > 92%
[2]; by 96 hours
  depletion of leukemic cells, on average: > 98%
[3]
  pIC50: 8.00
